Test results reported in publication PMC12602503, “AaeAP2a, a scorpion-derived antimicrobial peptide, combats carbapenem-resistant Acinetobacter baumannii via membrane disruption and triggered metabolic collapse” (Frontiers in Microbiology, 2025).
Values after ≈ are worked out from the molar mass of the structure shown. “Also recorded” adds a separate entry of the source. Like-named read-outs stand apart in the source and are kept apart here. No end group written: not given here.

What was measured:
horse erythrocytes = conditions: 64 μg/mL; 2% horse erythrocyte suspension; ref Du et al.; cited from earlier work
Description: Safety and stability are essential prerequisites for the clinical application of pharmaceutical agents.

mouse erythrocytes = test: Hemolytic activity; type: cell-based; conditions: 4% mouse erythrocyte suspension, 37 °C, 1 h, OD 540 nm
Description: (§1) To systematically evaluate the biosafety of the antimicrobial peptide AaeAP2a, we assessed its hemolytic activity and cytotoxicity ([Liu et al., 2020a]; [Zhou F. et al., 2022]). A 4% (v/v) erythrocyte suspension was prepared from freshly collected anticoagulated mouse blood by repeatedly resuspending and washing the cells three times with phosphate-buffered saline (PBS), following the established protocol. […] In this test, 1% (v/v) Triton X-100 was used as the positive control. Three replicates per treatment group were used to study OD at 540 nm using a microplate reader. The cytotoxicity of AaeAP2a on human embryonic kidney 293 T cells was tested using the Cell Counting Kit - 8 (CCK-8). […] The CCK-8 assay was thus performed, with three replicates recorded for each concentration.

A. baumannii ATCC 19606 = test: microbe, parasite or virus in culture; type: cell-based, Acinetobacter baumannii; conditions: for MIC: CLSI M100-ED34, MHB, triplicate; for Interpretation: CLSI interpretation of MIC; for Interpretation: key: R, Resistant; I, Intermediate; S, Sensitive
Description: (§2) The inhibitory activity of the antimicrobial peptide was assessed using the broth microdilution method following the CLSI M100-ED34 standard ([Humphries et al., 2021]). A single colony of A. baumannii was isolated and inoculated into Mueller-Hinton Broth (MHB), then incubated overnight at 37 °C with agitation at 180 rpm. The overnight cultures were adjusted to a 0.5 McFarland turbidity standard, after which it was diluted 1:100 in MHB medium. […] A. baumannii ATCC 19606 served as the control strain, and the experiments were conducted in triplicate.

CRAB 236 = test: microbe, parasite or virus in culture; type: cell-based, Acinetobacter baumannii; conditions: for Interpretation: CLSI interpretation of MIC; for Interpretation: key: R, Resistant; I, Intermediate; S, Sensitive
Description: as §2

[1] = test system: human embryonic kidney 293 T cells; test: Cytotoxicity, CCK-8; type: cell-based; conditions: 16 × MIC, 24 h
Description: as §1

trypsin = test: Protease resistance, read out by MIC; type: in vitro ADME; conditions: trypsin concentrations exceeding 40 μg/mL, 1 h, 37 °C; MIC vs ATCC 19606; triplicate
Description: (§3) We thoroughly examined the effects of storage at room temperature, repeated freeze–thaw cycles, temperature variations, pH levels, salt ions, urea, and protease treatment on the antimicrobial activity of peptide AaeAP2a ([Zhu et al., 2022]). Through 0 to 12 freeze–thaw iterations, AaeAP2a was incubated for 1 h at various temperatures (0, 25, 50, 75, and 100 °C) and pH values (3 to 11). Additionally, the peptide was incubated with four salt ions—NaCl, KCl, CaCl2, and MgCl2—at concentrations of […], as well as with urea at concentrations of […] for 1 h. Furthermore, AaeAP2a was treated with proteinase K or trypsin at concentrations ranging from 0 to 100 μg/mL (i.e., 0, 20, 40, 60, 80, and 100 μg/mL) for 1 h at 37 °C. The changes in its antimicrobial activity were quantitatively assessed using the MIC method. All assays were conducted in triplicate. […] Proteinase K, Trypsin, and Urea were obtained from Beyotime Biotechnology (China), while all other reagents were purchased from Macklin (China).

proteinase K = biological target: T1, proteinase K (Parengyodontium album, UniProt P06873); test: Protease resistance, read out by MIC; type: in vitro ADME; conditions: proteinase K 0–100 μg/mL, 1 h, 37 °C; MIC vs ATCC 19606; triplicate
T1 construct: purchased Beyotime Biotechnology (China)
Description: as §3

[2] = test system: Escherichia coli biofilms; conditions: 1 × MIC; ref Luo et al., 2024; cited from earlier work
Description: In addition to […] the permeability of antimicrobial agents, bacterial biofilms, which rely on a complex matrix of extracellular polymeric substances, support the evolution of bacterial drug resistance, creating a protective barrier against drug-induced killing ([Verderosa et al., 2019]). AMPs have shown dual potential in meeting biofilm-related chronic infections: they can inhibit the initial stages of biofilm formation and eradicate mature biofilms. In this study, AaeAP2a, at a 4 × MIC, obtained an inhibition rate approaching 80% against biofilms formed by two strains of Acinetobacter ...

[3] = CRAB 236, broth microdilution, CLSI M100-ED34, MHB, triplicate
[4] = Acinetobacter baumannii, ATCC19606, broth microdilution, read-out: MIC

T1 sequence (P06873 106-384): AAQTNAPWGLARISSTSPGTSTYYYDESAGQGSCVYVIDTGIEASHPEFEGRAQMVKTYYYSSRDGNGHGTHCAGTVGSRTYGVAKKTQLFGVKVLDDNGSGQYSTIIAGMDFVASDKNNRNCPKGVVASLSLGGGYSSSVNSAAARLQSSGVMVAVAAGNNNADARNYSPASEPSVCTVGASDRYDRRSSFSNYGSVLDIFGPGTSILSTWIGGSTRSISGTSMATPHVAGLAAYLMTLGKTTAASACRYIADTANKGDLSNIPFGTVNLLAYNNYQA

Compound	Hemolysis (horse erythrocytes)	Hemolysis (mouse erythrocytes; 16 × MIC) [%]	Hemolysis (mouse erythrocytes; 64 × MIC (200 μg/mL)) [%]	MIC (A. baumannii ATCC 19606; broth microdilution) [µg/mL]	MIC (CRAB 236; [3]) [µg/mL]	Cell viability [1] [%]	Activity after trypsin treatment (trypsin)	Resistance to proteinase K (proteinase K)	Eradication efficiency against Escherichia coli biofilms [2] [%]	Interpretation (A. baumannii ATCC 19606)	Interpretation (CRAB 236; CRAB 236)	MIC (A. baumannii ATCC 19606; [4]) [µg/mL]	MIC (CRAB 236; Acinetobacter baumannii) [µg/mL]
FLFKLIPKAIKGLVKAIRK [AaeAP2a]	complete lysis	< 5	< 5	3.125	6.25	> 90	markedly reduced; also recorded: diminished	substantial resistance	–	–	–	–	–
Colistin	–	–	–	2	0.5	–	–	–	35	S	S	–	–
CN(C)[C@@H]1C(O)=C(C(N)=O)C(=O)[C@@]2(O)C(O)=C3C(=O)c4c(O)cccc4[C@@](C)(O)[C@H]3C[C@@H]12 [Tetracycline]	–	–	–	–	–	–	–	–	–	S	R	2 (≈ 4.5 µM)	64 (≈ 144 µM)
CNC(C)C1CCC(N)C(OC2C(N)CC(N)C(OC3OCC(C)(O)C(NC)C3O)C2O)O1 (centres unmarked) [Gentamicin]	–	–	–	–	–	–	–	–	–	S	R	1 (≈ 2.09 µM)	> 32
C[C@@H](O)[C@H]1C(=O)N2C(C(=O)O)=C(S[C@@H]3CN[C@H](C(=O)N(C)C)C3)[C@H](C)[C@H]12 [Meropenem]	–	–	–	–	–	–	–	–	–	S	R	2 (≈ 5.22 µM)	16 (≈ 41.7 µM)
CO/N=C(\C(=O)N[C@@H]1C(=O)N2C(C(=O)O)=C(CSc3nc(=O)c(=O)[nH]n3C)CS[C@H]12)c1csc(N)n1 [Ceftriaxone]	–	–	–	–	–	–	–	–	–	I	I	16 (≈ 28.9 µM)	32 (≈ 57.7 µM)
